# Data: ChEMBL document CHEMBL1629665, “Contribution of vraSR and graSR point mutations to vancomycin resistance in vancomycin-intermediate Staphylococcus aureus” (2009)
# Where a SMILES comes first, the peptide text is derived from it. Bridges are numbered along the chain shown (N, C = ends). [ ]: non-standard residue; d: D form. The star is where a group is joined. Ileψ(thiazoline)Cys = CC[C@H](C)[C@H](N)C1=N[C@H](C(=O)*)CS1; dOrn = NCCC[C@@H](N)C(=O)O
# Columns and labels:
# Format in all cases: functional
# Staphylococcus aureus [1] = experiment: Antibacterial activity against vancomycin-susceptible Staphylococcus aureus Mu50omega expressing vraSn mutant gene after 24 hrs by Etest
# Staphylococcus aureus [2] = experiment: Antibacterial activity against vancomycin-susceptible Staphylococcus aureus Mu50omega expressing vraSm, graRm mutant gene after 24 hrs by Etest
# Staphylococcus aureus [3] = experiment: Antibacterial activity against vancomycin-susceptible Staphylococcus aureus Mu50omega after 48 hrs by Etest
# Staphylococcus aureus [4] = experiment: Antibacterial activity against vancomycin-susceptible Staphylococcus aureus Mu50omega expressing vraSm, graRm mutant gene after 48 hrs by Etest
# Staphylococcus aureus [5] = experiment: Antibacterial activity against vancomycin-susceptible Staphylococcus aureus Mu50omega expressing vraSm mutant gene after 48 hrs by Etest
# Staphylococcus aureus [6] = experiment: Antibacterial activity against vancomycin-susceptible Staphylococcus aureus Mu50omega after 24 hrs by Etest
# Staphylococcus aureus [7] = experiment: Antibacterial activity against vancomycin-susceptible Staphylococcus aureus Mu50omega expressing vraSm mutant gene after 24 hrs by Etest
# Staphylococcus aureus [8] = experiment: Antibacterial activity against vancomycin-intermediate Staphylococcus aureus Mu50 after 48 hrs by Etest
# Staphylococcus aureus [9] = experiment: Antibacterial activity against vancomycin-intermediate Staphylococcus aureus Mu50 after 24 hrs by Etest
# Staphylococcus aureus [10] = experiment: Antibacterial activity against vancomycin-susceptible Staphylococcus aureus Mu50omega expressing vraSn mutant gene after 48 hrs by Etest
# Staphylococcus aureus [11] = experiment: Antibacterial activity against vancomycin-susceptible Staphylococcus aureus Mu50omega expressing vraSm mutant gene after 24 hrs by Etest in presence of Sulbactam
# Staphylococcus aureus [12] = experiment: Antibacterial activity against vancomycin-susceptible Staphylococcus aureus Mu50omega expressing vraSn mutant gene after 24 hrs by Etest in presence of Sulbactam
# Staphylococcus aureus [13] = experiment: Antibacterial activity against vancomycin-intermediate Staphylococcus aureus Mu50 after 48 hrs by Etest in presence of Sulbactam; conditions: Mu50, 48 h
# Staphylococcus aureus [14] = experiment: Antibacterial activity against vancomycin-susceptible Staphylococcus aureus Mu50omega expressing vraSm, graRm mutant gene after 24 hrs by Etest in presence of Sulbactam
# Staphylococcus aureus [15] = experiment: Antibacterial activity against vancomycin-susceptible Staphylococcus aureus Mu50omega expressing vraSm, graRm mutant gene after 48 hrs by Etest in presence of Sulbactam
# Staphylococcus aureus [16] = experiment: Antibacterial activity against vancomycin-susceptible Staphylococcus aureus Mu50omega after 24 hrs by Etest in presence of Sulbactam
# Staphylococcus aureus [17] = experiment: Antibacterial activity against vancomycin-susceptible Staphylococcus aureus Mu50omega expressing vraSn mutant gene after 48 hrs by Etest in presence of Sulbactam
# Staphylococcus aureus [18] = experiment: Antibacterial activity against vancomycin-susceptible Staphylococcus aureus Mu50omega after 48 hrs by Etest in presence of Sulbactam
# Staphylococcus aureus [19] = experiment: Antibacterial activity against vancomycin-susceptible Staphylococcus aureus Mu50omega expressing vraSm mutant gene after 48 hrs by Etest in presence of Sulbactam
# Staphylococcus aureus [20] = experiment: Antibacterial activity against vancomycin-intermediate Staphylococcus aureus Mu50 after 24 hrs by Etest in presence of Sulbactam; conditions: Mu50, 24 h
Compound,MIC (Staphylococcus aureus [1]) [µg/mL],MIC (Staphylococcus aureus [2]) [µg/mL],MIC (Staphylococcus aureus [3]) [µg/mL],MIC (Staphylococcus aureus [4]) [µg/mL],MIC (Staphylococcus aureus [5]) [µg/mL],MIC (Staphylococcus aureus [6]) [µg/mL],MIC (Staphylococcus aureus [7]) [µg/mL],"MIC (Staphylococcus aureus [8]; Mu50, 48 h) [µg/mL]","MIC (Staphylococcus aureus [9]; Mu50, 24 h) [µg/mL]",MIC (Staphylococcus aureus [10]) [µg/mL],further results
CCCCCCCCCC(=O)N[C@@H](Cc1c[nH]c2ccccc12)C(=O)N[C@H](CC(N)=O)C(=O)N[C@@H](CC(=O)O)C(=O)N[C@@H]1C(=O)NCC(=O)N[C@@H](CCCN)C(=O)N[C@@H](CC(=O)O)C(=O)N[C@H](C)C(=O)N[C@@H](CC(=O)O)C(=O)NCC(=O)N[C@H](CO)C(=O)N[C@@H]([C@H](C)CC(=O)O)C(=O)N[C@@H](CC(=O)c2ccccc2N)C(=O)O[C@@H]1C,1.5,2,1,2,1.5,1,1.5,2,2,1.5,
CC1(C)S[C@@H]2[C@H](NC(=O)[C@H](N)c3ccccc3)C(=O)N2[C@H]1C(=O)O [AMPICILLIN],12,12,1,12,12,1,12,8,8,12,MIC (Staphylococcus aureus [11]): 64 µg/mL; MIC (Staphylococcus aureus [12]): 48 µg/mL; MIC (Staphylococcus aureus [13]): 48 µg/mL; MIC (Staphylococcus aureus [14]): 64 µg/mL; MIC (Staphylococcus aureus [15]): 64 µg/mL; MIC (Staphylococcus aureus [16]): 2 µg/mL; MIC (Staphylococcus aureus [17]): 48 µg/mL; MIC (Staphylococcus aureus [18]): 2 µg/mL; MIC (Staphylococcus aureus [19]): 64 µg/mL; MIC (Staphylococcus aureus [20]): 48 µg/mL
CC[C@H]1OC(=O)[C@H](C)[C@@H](O[C@H]2C[C@@](C)(OC)[C@@H](O)[C@H](C)O2)[C@H](C)[C@@H](O[C@@H]2O[C@H](C)C[C@H](N(C)C)[C@H]2O)[C@](C)(O)C[C@@H](C)CN(C)[C@H](C)[C@@H](O)[C@]1(C)O [AZITHROMYCIN],,,> 256,,,> 256,,> 256,> 256,,
CC[C@H](C)[C@H](N)C1=N[C@H](C(=O)N[C@@H](CC(C)C)C(=O)N[C@H](CCC(=O)O)C(=O)N[C@H](C(=O)N[C@H]2CCCCNC(=O)[C@H](CC(N)=O)NC(=O)[C@@H](CC(=O)O)NC(=O)[C@H](Cc3cnc[nH]3)NC(=O)[C@@H](Cc3ccccc3)NC(=O)[C@H]([C@@H](C)CC)NC(=O)[C@@H](CCCN)NC2=O)[C@@H](C)CC)CS1 [BACITRACIN] ({Ileψ(thiazoline)Cys}-L[dE]IK[dOrn]I[dF]H[dD]N; lactam 4-C),128,256,24,> 256,> 256,12,256,> 256,> 256,256,
CO[C@@]1(NC(=O)Cc2cccs2)C(=O)N2C(C(=O)O)=C(COC(N)=O)CS[C@@H]21 [CEFOXITIN],> 256,> 256,32,> 256,> 256,32,> 256,> 256,> 256,> 256,
CO/N=C(\C(=O)N[C@@H]1C(=O)N2C(C(=O)O)=CCS[C@H]12)c1csc(N)n1 [CEFTIZOXIME],> 256,> 256,0.5,> 256,> 256,0.38,> 256,> 256,> 256,> 256,
CO/N=C(\C(=O)N[C@@H]1C(=O)N2C(C(=O)O)=C(CSc3nc(=O)c(O)nn3C)CS[C@H]12)c1csc(N)n1 [CEFTRIAXONE],> 0.256,> 256,> 256,,,3,> 256,> 256,> 256,,
CC(=O)OCC1=C(C(=O)O)N2C(=O)[C@@H](NC(=O)Cc3cccs3)[C@H]2SC1 [CEPHALOTHIN],> 256,> 256,0.38,> 256,> 256,0.25,> 256,128,128,> 256,
O=C(O)c1cn(C2CC2)c2cc(N3CCNCC3)c(F)cc2c1=O [CIPROFLOXACIN],,,> 32,,,> 32,,> 32,> 32,,
CC[C@H]1OC(=O)[C@H](C)[C@@H](O[C@H]2C[C@@](C)(OC)[C@@H](O)[C@H](C)O2)[C@H](C)[C@@H](O[C@@H]2O[C@H](C)C[C@H](N(C)C)[C@H]2O)[C@](C)(OC)C[C@@H](C)C(=O)[C@H](C)[C@@H](O)[C@]1(C)O [CLARITHROMYCIN],,,> 256,,,> 256,,> 256,> 256,,
CCC[C@@H]1C[C@@H](C(=O)N[C@@H]([C@H]2O[C@H](SC)[C@H](O)[C@@H](O)[C@H]2O)[C@H](C)Cl)N(C)C1 [CLINDAMYCIN],,,> 256,,,> 256,,> 256,> 256,,
C[C@H]1c2cccc(O)c2C(=O)C2=C(O)[C@]3(O)C(=O)C(C(N)=O)=C(O)[C@@H](N(C)C)[C@@H]3[C@@H](O)[C@@H]21.O [DOXYCYCLINE],8,8,> 256,,,8,8,> 256,8,,
CC[C@H]1OC(=O)[C@H](C)[C@@H](O[C@H]2C[C@@](C)(OC)[C@@H](O)[C@H](C)O2)[C@H](C)[C@@H](O[C@@H]2O[C@H](C)C[C@H](N(C)C)[C@H]2O)[C@](C)(O)C[C@@H](C)C(=O)[C@H](C)[C@@H](O)[C@]1(C)O [ERYTHROMYCIN],,,> 256,,,> 256,,> 250,> 250,,
C[C@@H](O)[C@H]1C(=O)N2C(C(=O)O)=C(SCCNC=N)C[C@H]12 [IMIPENEM ANHYDROUS],> 32,> 32,0.38,> 32,> 32,0.38,> 32,> 32,> 32,> 32,
C[C@H]1COc2c(N3CCN(C)CC3)c(F)cc3c(=O)c(C(=O)O)cn1c23.C[C@H]1COc2c(N3CCN(C)CC3)c(F)cc3c(=O)c(C(=O)O)cn1c23.O [LEVOFLOXACIN],,,> 32,,,> 32,,> 32,> 32,,
CC(=O)NC[C@H]1CN(c2ccc(N3CCOCC3)c(F)c2)C(=O)O1 [LINEZOLID],0.5,0.5,0.5,0.5,0.5,0.5,0.5,0.5,0.5,0.5,
COc1cccc(OC)c1C(=O)N[C@@H]1C(=O)N2[C@@H]1SC(C)(C)[C@@H]2C(=O)O [METHICILLIN],,,> 256,,,> 256,,> 256,> 256,,
CN(C)c1ccc(O)c2c1C[C@H]1C[C@H]3[C@H](N(C)C)C(O)=C(C(N)=O)C(=O)[C@@]3(O)C(O)=C1C2=O [MINOCYCLINE],8,8,24,24,24,10,8,24,12,24,
Cc1onc(-c2ccccc2)c1C(=O)N[C@@H]1C(=O)N2[C@@H]1SC(C)(C)[C@@H]2C(=O)O [OXACILLIN],> 256,> 256,8,> 256,> 256,8,> 256,> 256,> 256,> 256,
C[C@@H]1CN(c2c(F)c(N)c3c(=O)c(C(=O)O)cn(C4CC4)c3c2F)C[C@H](C)N1 [SPARFLOXACIN],,,> 32,,,> 32,,> 32,> 32,,
CN(C)[C@@H]1C(O)=C(C(N)=O)C(=O)[C@@]2(O)C(O)=C3C(=O)c4c(O)cccc4[C@@](C)(O)[C@H]3C[C@@H]12 [TETRACYCLINE],24,24,48,48,48,32,24,48,32,48,
CN[C@H](CC(C)C)C(=O)N[C@H]1C(=O)N[C@@H](CC(N)=O)C(=O)N[C@H]2C(=O)N[C@H]3C(=O)N[C@H](C(=O)N[C@H](C(=O)O)c4cc(O)cc(O)c4-c4cc3ccc4O)[C@H](O)c3ccc(c(Cl)c3)Oc3cc2cc(c3O[C@@H]2O[C@H](CO)[C@@H](O)[C@H](O)[C@H]2O[C@H]2C[C@](C)(N)[C@H](O)[C@H](C)O2)Oc2ccc(cc2Cl)[C@H]1O [VANCOMYCIN],3.5,6,1,7,5,0.5,4.5,7,6,4,
GENTAMICIN,64,0.064,0.064,0.064,0.064,0.064,0.064,,,0.064,MIC (Staphylococcus aureus [8]): 0.128 µg/mL; MIC (Staphylococcus aureus [9]): 0.128 µg/mL
